For the assay, the target named is T1, α4β1 integrin (Homo sapiens, UniProt P05556+P13612).
T1 construct: endogenous in cells; host or cells: Ramos cells
The assay is described as follows: Adhesion of calcein-labeled Ramos cells to CS1 (fibronectin) peptide conjugated ovalbumin. The format is cell-based. As to conditions: Ramos cell adhesion to CS1 conjugated ovalbumin, 30 minutes at 37° C. Here is the method:
A procedure in which a 26-amino acid peptide containing the CS1 sequence of fibronectin with an N-terminal Cys ([…]) was coupled to maleimide activated ovalbumin was used to determine the efficacy of the compounds synthesized. Bovine serum albumin (BSA) and CS1 conjugated ovalbumin were coated onto 96-well polystyrene plates at 0.5 μg/ml in TBS (50 mM TRIS, pH 7.5; 150 mM NaCl) at 4° C. for 16 hours. The plates were washed three times with TBS and blocked with TBS containing 3% BSA at room temperature for 4 hours. Blocked plates were washed three times in binding buffer (TBS; 1 mM MgCl2; 1 mM CaCl2; 1 mM MnCl2) prior to assay. Ramos cells fluorescently labeled with calcein AM were resuspended in binding buffer (10^7 cells/ml) and diluted 1:2 with same buffer with or without compound. 100 μM of compound was added. The cells were added immediately to the wells (2.5×10^5 cells/well) and incubated for 30 minutes at 37° C. Following three washes with binding buffer, adherent cells were lysed and quantitated using a fluorometer. IC50 is defined as the dose required to give 50% inhibition, measured in μM for Tables 2 and 4. The lower the IC50 value and the greater the percentage of inhibition, the more efficient the compound is at prevention of cell adhesion.

pIC50: −log10 of the molar value.

T1 sequence (P13612 34-1032): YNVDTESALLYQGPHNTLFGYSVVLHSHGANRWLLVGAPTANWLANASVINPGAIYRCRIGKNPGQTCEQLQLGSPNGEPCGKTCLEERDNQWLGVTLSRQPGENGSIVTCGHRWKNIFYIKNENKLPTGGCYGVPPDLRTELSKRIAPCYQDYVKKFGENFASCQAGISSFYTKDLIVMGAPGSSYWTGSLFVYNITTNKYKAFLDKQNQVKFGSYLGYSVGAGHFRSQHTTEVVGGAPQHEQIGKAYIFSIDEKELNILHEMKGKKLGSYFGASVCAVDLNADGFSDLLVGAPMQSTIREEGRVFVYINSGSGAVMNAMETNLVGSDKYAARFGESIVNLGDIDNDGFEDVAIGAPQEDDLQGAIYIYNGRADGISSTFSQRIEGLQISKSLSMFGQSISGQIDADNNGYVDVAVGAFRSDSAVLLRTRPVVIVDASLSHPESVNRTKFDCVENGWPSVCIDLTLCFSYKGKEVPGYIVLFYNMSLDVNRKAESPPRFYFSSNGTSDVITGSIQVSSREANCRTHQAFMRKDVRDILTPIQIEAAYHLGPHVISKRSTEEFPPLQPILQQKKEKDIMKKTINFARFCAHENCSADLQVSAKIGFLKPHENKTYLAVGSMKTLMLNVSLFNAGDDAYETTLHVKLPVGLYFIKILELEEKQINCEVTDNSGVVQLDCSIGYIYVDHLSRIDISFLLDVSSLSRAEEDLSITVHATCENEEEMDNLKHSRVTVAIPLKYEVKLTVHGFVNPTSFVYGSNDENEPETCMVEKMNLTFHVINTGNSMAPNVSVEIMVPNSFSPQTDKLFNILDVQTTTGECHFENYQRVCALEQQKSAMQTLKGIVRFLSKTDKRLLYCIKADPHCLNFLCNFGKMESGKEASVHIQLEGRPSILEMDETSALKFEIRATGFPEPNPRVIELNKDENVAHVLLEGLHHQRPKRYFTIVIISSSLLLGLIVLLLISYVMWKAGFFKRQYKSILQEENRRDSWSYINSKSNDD
T1 sequence (P05556 21-798): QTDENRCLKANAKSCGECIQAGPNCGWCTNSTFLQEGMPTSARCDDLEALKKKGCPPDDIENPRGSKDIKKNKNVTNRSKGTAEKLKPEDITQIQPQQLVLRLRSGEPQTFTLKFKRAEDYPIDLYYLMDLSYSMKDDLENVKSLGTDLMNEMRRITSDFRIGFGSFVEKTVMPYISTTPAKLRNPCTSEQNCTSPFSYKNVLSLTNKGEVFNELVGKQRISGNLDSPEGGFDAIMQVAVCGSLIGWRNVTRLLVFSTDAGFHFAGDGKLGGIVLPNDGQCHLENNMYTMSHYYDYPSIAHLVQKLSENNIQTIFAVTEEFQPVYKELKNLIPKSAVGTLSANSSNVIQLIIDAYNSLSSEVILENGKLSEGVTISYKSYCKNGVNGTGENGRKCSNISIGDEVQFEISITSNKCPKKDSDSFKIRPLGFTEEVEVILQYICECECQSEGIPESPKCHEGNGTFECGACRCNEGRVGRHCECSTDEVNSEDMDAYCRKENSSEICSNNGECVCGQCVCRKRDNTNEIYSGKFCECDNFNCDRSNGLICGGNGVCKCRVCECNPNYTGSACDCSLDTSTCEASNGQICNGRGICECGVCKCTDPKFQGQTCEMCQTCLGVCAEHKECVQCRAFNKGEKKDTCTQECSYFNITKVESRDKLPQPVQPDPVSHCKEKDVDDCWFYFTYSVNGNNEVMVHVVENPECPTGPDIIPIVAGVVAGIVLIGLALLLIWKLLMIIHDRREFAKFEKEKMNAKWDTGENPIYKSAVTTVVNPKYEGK

In general, pIC50 refers to the IC50 on a negative log10 scale, so that one unit is a factor of ten. With `O=C(O)CC(NC(=O)Nc1c(O)ccn(Cc2ccccc2Cl)c1=O)c1cccc(Cl)c1` (stereo not drawn), the negative logarithm of the IC50 (pIC50) was 7.52 (Table 3) and 7.52 (Table 4). Consider `O=C(O)CC(NC(=O)Nc1c(O)ccn(Cc2ccccc2Cl)c1=O)c1ccc(Cl)cc1` (stereo not drawn), for which the negative-log IC50 (pIC50) is 7.52 (Table 3) and 7.52 (Table 4). For the molecule `O=C(O)CC(NC(=O)Nc1c(O)ccn(Cc2ccccc2Cl)c1=O)c1ccc(Cl)c(Cl)c1` (stereo not drawn), the negative-log IC50 (pIC50) reads like this: (Table 3) 7.40; (Table 4) 7.40. `O=C(Nc1cccn(Cc2ccccc2Cl)c1=O)N[C@@H](C(=O)O)c1ccccc1`: the pIC50 (Table 4) was 4.10. Still for that read-out and setting: under `O=C(Nc1cccn(Cc2ccccc2Cl)c1=O)N[C@H](Cc1ccccc1)C(=O)O` stands 4.30; under `O=C(O)C[C@@H](NC(=O)Nc1cccn(Cc2ccccc2Cl)c1=O)c1ccc2c(c1)OCO2`, 5.70.

As for `Cc1ccn(Cc2ccccc2Cl)c(=O)c1NC(=O)N[C@H](C)CC(=O)O`, under “Table 3”, the negative-log IC50 (pIC50) was 6.52.

Turning to `O=C(O)C[C@H](NC(=O)Nc1c(O)ccn(Cc2ccccc2Cl)c1=O)c1ccc2c(c1)OCO2`, the negative-log IC50 (pIC50) (Table 3) was 7.70. For the molecule `Cc1ccc(Cn2cccc(NC(=O)N[C@@H](CC(=O)O)c3ccc4c(c3)OCO4)c2=O)cc1`, under “Table 4”, the pIC50 is 6.00. On the same count and under the same terms, the value for `O=C(O)C[C@H](NC(=O)Nc1cccn(CCc2cccs2)c1=O)c1ccc2c(c1)OCO2` was 4.82. For `Cc1ccccc1NC(=O)Nc1ccc(Cn2cccc(NC(=O)N[C@@H](CC(=O)O)c3ccc4c(c3)OCO4)c2=O)cc1`, under “Table 2”, the pIC50 is 9.00.

`O=C(O)C[C@H](NC(=O)Nc1cccn(Cc2ccccc2)c1=O)c1ccc2c(c1)OCO2`: the negative-log IC50 (pIC50) (Table 4) is 6.30.

As to `O=C(O)C[C@H](NC(=O)Nc1ccc(=O)n(Cc2ccccc2)c1)c1ccc2c(c1)OCO2`, under “Table 4”, the pIC50 is 6.30. `O=C(O)C[C@H](NC(=O)N[C@@H]1CCCN(Cc2cccs2)C1=O)c1ccc2c(c1)OCO2`: the negative-log IC50 (pIC50) (Table 2) is 5.70.

As for `O=C(O)C[C@H](NC(=O)N[C@H]1CCCCN(Cc2cccs2)C1=O)c1ccc2c(c1)OCO2`, the negative logarithm of the IC50 (pIC50) (Table 2) was 7.82.

Turning to `Cc1ccccc1NC(=O)Nc1ccc(CN2CCC[C@H](NC(=O)N[C@@H](CC(=O)O)c3ccc4c(c3)OCO4)C2=O)cc1`, the pIC50 (Table 2) was 9.52. Consider `CCCCN(C(=O)N[C@@H](CC(=O)O)c1ccc2c(c1)OCO2)c1cccn(Cc2cccs2)c1=O`, for which the pIC50 (Table 2) was 4.70. For the molecule `O=C(O)C[C@H](NC(=O)Nc1cccn(Cc2cccs2)c1=O)c1ccc2c(c1)CCO2`, for the setting “Table 4”, the pIC50 was 6.85. Same read-out and setting: the value for `O=C(O)C[C@H](NC(=O)Nc1cccn(Cc2cccs2)c1=O)c1cccc(F)c1` was 5.52; that for `CC(C)(C)c1ccc([C@H](CC(=O)O)NC(=O)Nc2cccn(Cc3cccs3)c2=O)cc1` was 5.70. With `O=C(O)C[C@H](NC(=O)Nc1cccn(Cc2cccs2)c1=O)c1ccc(F)c(C(F)(F)F)c1`, the negative logarithm of the IC50 (pIC50) (Table 4) is 6.46. Still for that read-out and setting: the value for `Cc1ccc([C@H](CC(=O)O)NC(=O)Nc2cccn(Cc3ccccc3C)c2=O)cc1` was 7.00. On the same count and under the same terms, the value for `Cc1ccc([C@H](CC(=O)O)NC(=O)Nc2cccn(Cc3ccccc3C(F)(F)F)c2=O)cc1` was 6.00; that for `Cc1ccc([C@H](CC(=O)O)NC(=O)Nc2cccn(Cc3ccccc3-c3ccccc3)c2=O)cc1` was 5.60.

Turning to `COc1cc([C@H](CC(=O)O)NC(=O)Nc2cccn(Cc3ccccc3Br)c2=O)cc(OC)c1OC`, under “Table 4”, the negative logarithm of the IC50 (pIC50) was 7.10.

Turning to `Cc1ccc([C@H](CC(=O)O)NC(=O)Nc2cccn(Cc3ccccc3Br)c2=O)cc1`, the pIC50 (Table 4) was 7.30. As for `Cc1cc(C)cc([C@H](CC(=O)O)NC(=O)Nc2cccn(Cc3ccccc3Cl)c2=O)c1`, the negative logarithm of the IC50 (pIC50) (Table 4) was 7.00. Still for that read-out and setting: under `O=C(O)C[C@H](NC(=O)Nc1cccn(Cc2ccccc2Cl)c1=O)c1ccc2c(c1)CCO2` stands 7.40; under `Cc1cc([C@H](CC(=O)O)NC(=O)Nc2cccn(Cc3ccccc3Cl)c2=O)ccc1O`, 7.15; under `COc1ccc([C@H](CC(=O)O)NC(=O)Nc2cccn(Cc3ccccc3Cl)c2=O)cc1C`, 7.40.

Regarding `Cc1ccc([C@H](CC(=O)O)NC(=O)Nc2cccn(Cc3ccccc3Cl)c2=O)cc1`, the negative logarithm of the IC50 (pIC50) (Table 4) is 7.00. Same read-out and setting: under `Cc1ccc([C@H](CC(=O)O)NC(=O)Nc2cccn(Cc3ccccc3Cl)c2=O)cc1C` stands 7.05; under `O=C(O)C[C@H](NC(=O)Nc1cccn(Cc2ccccc2Cl)c1=O)c1ccc(F)c(C(F)(F)F)c1`, 6.70. `COc1cc([C@H](CC(=O)O)NC(=O)Nc2cccn(Cc3ccccc3Cl)c2=O)cc(OC)c1OC`: for the setting “Table 4”, the negative-log IC50 (pIC50) is 7.40. For `O=C(O)C[C@H](NC(=O)Nc1cccn(Cc2ccccc2Cl)c1=O)c1ccccc1`, the negative-log IC50 (pIC50) (Table 4) was 7.00.

As for `COc1ccc([C@H](CC(=O)O)NC(=O)Nc2cccn(Cc3ccccc3Cl)c2=O)cc1`, under “Table 4”, the pIC50 was 7.00. `Cc1ccc([C@H](CC(=O)O)NC(=O)Nc2c(Nc3ccccn3)ccn(Cc3ccccc3Cl)c2=O)cc1`: the pIC50 (Table 3) is 7.82. The same measure, in the same setting: under `Cc1ccc([C@H](CC(=O)O)NC(=O)Nc2c(NCc3ccccn3)ccn(Cc3ccccc3Cl)c2=O)cc1` stands 7.82; under `Cc1ccc([C@H](CC(=O)O)NC(=O)Nc2c(NCc3cccnc3)ccn(Cc3ccccc3Cl)c2=O)cc1`, 7.70. Same read-out and setting: under `Cc1ccc([C@H](CC(=O)O)NC(=O)Nc2c(Nc3ccccc3)ccn(Cc3ccccc3Cl)c2=O)cc1` stands 7.70; under `CCCc1ccn(Cc2ccccc2Cl)c(=O)c1NC(=O)N[C@@H](CC(=O)O)c1ccc(C)cc1`, 8.40. The same measure, in the same setting: under `Cc1ccc([C@H](CC(=O)O)NC(=O)Nc2c(C)nc(C)n(Cc3ccccc3Cl)c2=O)cc1` stands 8.00; under `Cc1ccc([C@H](CC(=O)O)NC(=O)Nc2c(N3CCOCC3)ccn(Cc3ccccc3Cl)c2=O)cc1`, 9.00; under `Cc1ccc([C@H](CC(=O)O)NC(=O)Nc2c(N3CCN(C)CC3)ccn(Cc3ccccc3Cl)c2=O)cc1`, 8.52. For the molecule `COCCOCCOCCOc1ccn(Cc2ccccc2Cl)c(=O)c1NC(=O)N[C@@H](CC(=O)O)c1ccc(C)cc1`, the pIC50 (Table 3) was 8.70.

Regarding `COCCOCCOc1ccn(Cc2ccccc2Cl)c(=O)c1NC(=O)N[C@@H](CC(=O)O)c1ccc(C)cc1`, the negative logarithm of the IC50 (pIC50) (Table 3) was 8.70. The same measure, in the same setting: the value for `Cc1ccc([C@H](CC(=O)O)NC(=O)Nc2c(Nc3cc(C)no3)ccn(Cc3ccccc3Cl)c2=O)cc1` was 7.82; that for `COc1ccn(Cc2ccccc2Cl)c(=O)c1NC(=O)N[C@@H](CC(=O)O)c1ccc(C)cc1` was 7.70; that for `Cc1ccc([C@H](CC(=O)O)NC(=O)Nc2c(F)ccn(Cc3ccccc3Cl)c2=O)cc1` was 7.82. Still for that read-out and setting: under `O=C(O)C[C@H](NC(=O)Nc1c(O)ccn(Cc2ccccc2Cl)c1=O)c1cccc(F)c1` stands 7.40. Turning to `O=C(O)C[C@H](NC(=O)Nc1c(O)ccn(Cc2ccccc2Cl)c1=O)c1ccc(C(F)(F)F)cc1`, the pIC50 (Table 3) is 7.60. Same read-out and setting: under `CC(C)(C)c1ccc([C@H](CC(=O)O)NC(=O)Nc2c(O)ccn(Cc3ccccc3Cl)c2=O)cc1` stands 6.40; under `O=C(O)C[C@H](NC(=O)Nc1c(O)ccn(Cc2ccccc2Cl)c1=O)c1ccc(F)cc1`, 7.52. Still for that read-out and setting: under `COc1cc([C@H](CC(=O)O)NC(=O)Nc2c(O)ccn(Cc3ccccc3Cl)c2=O)cc(OC)c1OC` stands 7.70; under `COc1ccc([C@H](CC(=O)O)NC(=O)Nc2c(C)ccn(Cc3ccccc3Cl)c2=O)cc1C`, 7.82.

For the molecule `Cc1ccc([C@H](CC(=O)O)NC(=O)Nc2cccn(Cc3ccccc3F)c2=O)cc1`, the pIC50 (Table 4) was 7.00. On to `Cc1ccc([C@H](CC(=O)O)NC(=O)Nc2c(C)ccn(Cc3ccccc3F)c2=O)cc1`, for which the pIC50 (Table 3) is 7.70. For the molecule `Cc1ccc([C@H](CC(=O)O)NC(=O)Nc2cccn(Cc3cccc(Cl)c3Cl)c2=O)cc1`, under “Table 4”, the pIC50 is 6.46. On the same count and under the same terms, the value for `Cc1ccc([C@H](CC(=O)O)NC(=O)Nc2cccn(Cc3ccc(Cl)cc3Cl)c2=O)cc1` was 6.40. With `Cc1ccc([C@H](CC(=O)O)NC(=O)Nc2c(C)ccn(Cc3ccc(Cl)cc3Cl)c2=O)cc1`, the negative-log IC50 (pIC50) (Table 3) is 7.52.

In the case of `Cc1ccc([C@H](CC(=O)O)NC(=O)Nc2cccn(Cc3c(Cl)cccc3Cl)c2=O)cc1`, the pIC50 (Table 4) was 6.70. As to `Cc1ccc([C@H](CC(=O)O)NC(=O)Nc2c(C)ccn(Cc3c(Cl)cccc3Cl)c2=O)cc1`, the pIC50 (Table 3) is 7.70. In the case of `COc1cccc(Cn2cccc(NC(=O)N[C@@H](CC(=O)O)c3ccc(C)cc3)c2=O)c1`, for the setting “Table 4”, the pIC50 is 6.70. Take `Cc1ccc([C@H](CC(=O)O)NC(=O)Nc2c(-c3ccccn3)nc(C)n(Cc3ccccc3)c2=O)cc1`: the pIC50 is, setting by setting: (Table 3) 7.60; (Table 4) 7.60. `O=C(O)C[C@H](NC(=O)Nc1cccn(Cc2cccs2)c1=O)c1ccc(C(F)(F)F)cc1`: the negative-log IC50 (pIC50) (Table 4) is 5.82. Turning to `Cc1ccc([C@H](CC(=O)O)NC(=O)Nc2c(Br)ccn(Cc3ccccc3Cl)c2=O)cc1`, the negative-log IC50 (pIC50) (Table 3) was 7.70. In the case of `Cc1ccc([C@H](CC(=O)O)NC(=O)Nc2c(Cl)ccn(Cc3ccccc3Cl)c2=O)cc1`, the pIC50 (Table 3) is 7.70. Still for that read-out and setting: under `Cc1ccc([C@H](CC(=O)O)NC(=O)Nc2c(C)ccn(Cc3ccccc3)c2=O)cc1` stands 7.52.

Consider `Cc1ccc([C@H](CC(=O)O)NC(=O)Nc2cccn(Cc3cc(Cl)ccc3Cl)c2=O)cc1`, for which the negative-log IC50 (pIC50) (Table 4) is 6.82. On the same count and under the same terms, the value for `Cc1cccc([C@H](CC(=O)O)NC(=O)Nc2cccn(Cc3ccccc3Cl)c2=O)c1` was 6.70; that for `Cc1ccc([C@H](CC(=O)O)NC(=O)Nc2cccn(Cc3cccs3)c2=O)cc1` was 6.22.

(Values after patent US6972296B2, “Carboxylic acid derivatives that inhibit the binding of integrins to their receptors” (Encysive Pharmaceuticals Inc., priority 1999, dated 2005).)
